What was measured:
Cannabinoid receptor 1 = Cannabinoid receptor 1 (Homo sapiens, UniProt P21554)
[1] = target: T1, Muscarinic acetylcholine receptor M1 (Homo sapiens, UniProt P11229); format: functional
T1 sequence (P11229 whole entry): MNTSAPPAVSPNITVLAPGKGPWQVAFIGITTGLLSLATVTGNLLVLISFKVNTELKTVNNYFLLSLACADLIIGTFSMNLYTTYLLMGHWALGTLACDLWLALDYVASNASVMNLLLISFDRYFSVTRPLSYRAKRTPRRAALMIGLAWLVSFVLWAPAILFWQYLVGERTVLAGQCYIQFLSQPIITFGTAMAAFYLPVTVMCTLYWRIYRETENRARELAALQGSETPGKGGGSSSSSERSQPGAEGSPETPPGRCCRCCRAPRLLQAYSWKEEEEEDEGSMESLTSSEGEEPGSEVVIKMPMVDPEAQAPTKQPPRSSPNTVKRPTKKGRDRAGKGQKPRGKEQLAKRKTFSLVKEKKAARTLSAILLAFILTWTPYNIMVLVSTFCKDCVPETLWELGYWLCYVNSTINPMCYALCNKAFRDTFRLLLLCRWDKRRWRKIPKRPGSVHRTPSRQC

Histamine H2 receptor = Histamine H2 receptor (Homo sapiens, UniProt P25021)
[2] = target: Voltage-dependent N-type calcium channel subunit alpha-1B (Rattus norvegicus, UniProt Q02294); format: functional
[3] = target: Growth hormone secretagogue receptor type 1 (Homo sapiens, UniProt Q92847)
[4] = target: T2, Cholecystokinin receptor type A (Homo sapiens, UniProt P32238)
T2 sequence (P32238 whole entry): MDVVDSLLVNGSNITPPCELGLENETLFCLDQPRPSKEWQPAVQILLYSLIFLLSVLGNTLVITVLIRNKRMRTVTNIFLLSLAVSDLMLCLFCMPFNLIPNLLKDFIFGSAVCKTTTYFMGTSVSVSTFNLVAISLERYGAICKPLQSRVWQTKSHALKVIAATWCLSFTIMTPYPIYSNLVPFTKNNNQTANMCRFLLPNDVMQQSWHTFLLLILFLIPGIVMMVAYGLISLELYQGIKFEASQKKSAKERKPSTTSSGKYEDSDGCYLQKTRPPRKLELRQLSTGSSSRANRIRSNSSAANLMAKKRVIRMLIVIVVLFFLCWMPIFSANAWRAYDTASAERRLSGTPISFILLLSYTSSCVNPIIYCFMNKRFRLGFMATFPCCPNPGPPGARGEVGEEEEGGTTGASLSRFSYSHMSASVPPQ

Melanocortin receptor 4 = Melanocortin receptor 4 (Homo sapiens, UniProt P32245)
[5] = target: Beta-2 adrenergic receptor (Homo sapiens, UniProt P07550); format: functional, cell-based
Mu-type opioid receptor = Mu-type opioid receptor (Homo sapiens, UniProt P35372)
Vasopressin V1a receptor = Vasopressin V1a receptor (Homo sapiens, UniProt P37288)
[6] = target: T3, Alpha-1A adrenergic receptor (Homo sapiens, UniProt P35348)
T3 sequence (P35348 whole entry): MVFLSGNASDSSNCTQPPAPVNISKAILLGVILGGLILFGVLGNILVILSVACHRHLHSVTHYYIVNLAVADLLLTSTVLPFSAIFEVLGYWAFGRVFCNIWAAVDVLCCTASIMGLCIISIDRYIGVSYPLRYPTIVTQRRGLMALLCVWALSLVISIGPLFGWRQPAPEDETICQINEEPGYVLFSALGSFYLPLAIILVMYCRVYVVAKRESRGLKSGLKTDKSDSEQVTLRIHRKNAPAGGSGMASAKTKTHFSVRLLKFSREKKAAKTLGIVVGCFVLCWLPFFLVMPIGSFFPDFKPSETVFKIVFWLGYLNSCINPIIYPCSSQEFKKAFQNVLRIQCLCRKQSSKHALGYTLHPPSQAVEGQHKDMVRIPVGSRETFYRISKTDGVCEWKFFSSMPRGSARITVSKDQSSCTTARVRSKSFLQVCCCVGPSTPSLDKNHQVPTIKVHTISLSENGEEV

[7] = target: 5-hydroxytryptamine receptor 2B (Homo sapiens, UniProt P41595); format: functional, cell-based
[8] = target: Beta-1 adrenergic receptor (Homo sapiens, UniProt P08588); format: functional
Further: assay procedure not described here.

Mu-type opioid receptor, sequence (P35372 whole entry): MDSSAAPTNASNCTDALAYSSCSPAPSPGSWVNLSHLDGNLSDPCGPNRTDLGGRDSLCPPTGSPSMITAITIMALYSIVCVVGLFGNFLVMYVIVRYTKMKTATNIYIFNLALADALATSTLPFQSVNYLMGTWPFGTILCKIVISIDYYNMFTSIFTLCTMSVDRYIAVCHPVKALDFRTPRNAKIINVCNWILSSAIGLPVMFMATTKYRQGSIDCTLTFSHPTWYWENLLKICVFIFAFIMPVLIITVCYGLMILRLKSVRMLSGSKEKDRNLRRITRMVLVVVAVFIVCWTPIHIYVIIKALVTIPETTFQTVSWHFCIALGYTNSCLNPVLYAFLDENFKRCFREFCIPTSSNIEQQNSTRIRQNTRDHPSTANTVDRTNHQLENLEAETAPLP
Beta-2 adrenergic receptor, sequence (P07550 whole entry): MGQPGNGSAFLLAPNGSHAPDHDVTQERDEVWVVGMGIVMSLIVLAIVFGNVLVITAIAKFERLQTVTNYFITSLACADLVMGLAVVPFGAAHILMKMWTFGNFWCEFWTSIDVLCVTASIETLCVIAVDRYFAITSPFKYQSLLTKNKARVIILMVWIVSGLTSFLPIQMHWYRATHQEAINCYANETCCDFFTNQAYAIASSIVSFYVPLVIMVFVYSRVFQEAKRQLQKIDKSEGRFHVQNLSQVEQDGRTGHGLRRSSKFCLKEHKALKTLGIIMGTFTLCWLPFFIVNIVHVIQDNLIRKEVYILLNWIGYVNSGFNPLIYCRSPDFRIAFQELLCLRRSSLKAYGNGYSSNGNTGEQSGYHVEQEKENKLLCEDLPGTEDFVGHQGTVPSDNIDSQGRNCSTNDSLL
Histamine H2 receptor, sequence (P25021 whole entry): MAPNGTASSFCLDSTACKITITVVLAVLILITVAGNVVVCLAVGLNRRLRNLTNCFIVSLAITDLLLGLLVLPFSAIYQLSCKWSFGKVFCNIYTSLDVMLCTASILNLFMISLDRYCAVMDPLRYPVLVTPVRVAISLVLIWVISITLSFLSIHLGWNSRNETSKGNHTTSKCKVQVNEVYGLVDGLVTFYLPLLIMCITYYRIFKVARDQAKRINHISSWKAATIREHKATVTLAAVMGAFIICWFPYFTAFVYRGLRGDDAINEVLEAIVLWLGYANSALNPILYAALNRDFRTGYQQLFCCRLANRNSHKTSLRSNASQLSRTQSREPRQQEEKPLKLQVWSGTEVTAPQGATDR
Melanocortin receptor 4, sequence (P32245 whole entry): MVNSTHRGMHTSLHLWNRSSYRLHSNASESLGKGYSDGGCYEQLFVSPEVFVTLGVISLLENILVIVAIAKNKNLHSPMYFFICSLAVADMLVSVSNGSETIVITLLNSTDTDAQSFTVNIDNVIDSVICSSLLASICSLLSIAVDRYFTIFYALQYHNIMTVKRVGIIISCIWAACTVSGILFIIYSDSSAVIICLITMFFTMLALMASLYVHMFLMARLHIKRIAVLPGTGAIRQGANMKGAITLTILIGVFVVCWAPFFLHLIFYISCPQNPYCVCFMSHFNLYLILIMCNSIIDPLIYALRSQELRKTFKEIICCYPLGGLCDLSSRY
5-hydroxytryptamine receptor 2B, sequence (P41595 whole entry): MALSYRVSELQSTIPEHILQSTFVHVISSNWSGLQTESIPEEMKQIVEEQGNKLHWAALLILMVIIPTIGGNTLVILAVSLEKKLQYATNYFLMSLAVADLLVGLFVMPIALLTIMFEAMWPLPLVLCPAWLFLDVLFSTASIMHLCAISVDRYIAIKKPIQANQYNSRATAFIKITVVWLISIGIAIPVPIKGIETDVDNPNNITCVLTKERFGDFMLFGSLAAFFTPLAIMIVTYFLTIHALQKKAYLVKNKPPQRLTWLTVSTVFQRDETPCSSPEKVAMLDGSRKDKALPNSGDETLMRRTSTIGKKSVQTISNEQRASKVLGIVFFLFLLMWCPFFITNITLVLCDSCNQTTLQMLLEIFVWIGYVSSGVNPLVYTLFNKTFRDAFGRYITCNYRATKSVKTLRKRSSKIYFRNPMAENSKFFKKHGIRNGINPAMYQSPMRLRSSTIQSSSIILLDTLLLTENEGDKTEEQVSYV
Beta-1 adrenergic receptor, sequence (P08588 whole entry): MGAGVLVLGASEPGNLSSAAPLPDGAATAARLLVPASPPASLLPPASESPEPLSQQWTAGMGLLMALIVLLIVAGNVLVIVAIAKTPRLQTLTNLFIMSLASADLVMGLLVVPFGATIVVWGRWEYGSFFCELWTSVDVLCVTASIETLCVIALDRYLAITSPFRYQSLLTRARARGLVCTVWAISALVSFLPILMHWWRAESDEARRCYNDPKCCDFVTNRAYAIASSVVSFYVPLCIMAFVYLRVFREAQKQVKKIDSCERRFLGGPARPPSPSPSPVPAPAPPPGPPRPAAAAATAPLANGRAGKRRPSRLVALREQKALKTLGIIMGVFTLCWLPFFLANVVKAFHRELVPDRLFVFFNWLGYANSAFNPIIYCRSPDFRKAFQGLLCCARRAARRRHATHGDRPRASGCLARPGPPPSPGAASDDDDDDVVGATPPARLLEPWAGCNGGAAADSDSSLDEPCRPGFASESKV
Growth hormone secretagogue receptor type 1, sequence (Q92847 whole entry): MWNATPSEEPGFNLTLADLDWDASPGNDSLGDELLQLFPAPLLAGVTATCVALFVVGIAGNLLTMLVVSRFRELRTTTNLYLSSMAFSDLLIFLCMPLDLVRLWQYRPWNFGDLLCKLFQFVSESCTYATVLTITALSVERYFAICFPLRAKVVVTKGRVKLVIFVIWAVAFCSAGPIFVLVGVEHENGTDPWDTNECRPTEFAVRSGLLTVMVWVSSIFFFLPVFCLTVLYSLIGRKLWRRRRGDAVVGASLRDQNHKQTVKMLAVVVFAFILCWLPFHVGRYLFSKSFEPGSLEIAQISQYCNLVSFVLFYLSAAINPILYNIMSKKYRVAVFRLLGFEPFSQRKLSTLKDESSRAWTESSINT
Cannabinoid receptor 1, sequence (P21554 whole entry): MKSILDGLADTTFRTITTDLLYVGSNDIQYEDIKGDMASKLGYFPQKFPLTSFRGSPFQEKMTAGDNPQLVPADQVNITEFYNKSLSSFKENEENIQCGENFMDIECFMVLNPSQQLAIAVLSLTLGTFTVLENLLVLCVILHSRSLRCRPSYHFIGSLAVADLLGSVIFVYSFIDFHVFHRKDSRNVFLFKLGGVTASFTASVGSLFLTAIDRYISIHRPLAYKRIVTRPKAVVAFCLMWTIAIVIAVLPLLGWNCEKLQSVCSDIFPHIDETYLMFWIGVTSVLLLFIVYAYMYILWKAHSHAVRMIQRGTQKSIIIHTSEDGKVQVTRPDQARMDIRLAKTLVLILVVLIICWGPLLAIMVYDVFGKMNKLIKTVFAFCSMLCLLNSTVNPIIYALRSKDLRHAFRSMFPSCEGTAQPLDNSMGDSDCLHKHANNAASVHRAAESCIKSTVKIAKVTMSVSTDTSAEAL
Vasopressin V1a receptor, sequence (P37288 whole entry): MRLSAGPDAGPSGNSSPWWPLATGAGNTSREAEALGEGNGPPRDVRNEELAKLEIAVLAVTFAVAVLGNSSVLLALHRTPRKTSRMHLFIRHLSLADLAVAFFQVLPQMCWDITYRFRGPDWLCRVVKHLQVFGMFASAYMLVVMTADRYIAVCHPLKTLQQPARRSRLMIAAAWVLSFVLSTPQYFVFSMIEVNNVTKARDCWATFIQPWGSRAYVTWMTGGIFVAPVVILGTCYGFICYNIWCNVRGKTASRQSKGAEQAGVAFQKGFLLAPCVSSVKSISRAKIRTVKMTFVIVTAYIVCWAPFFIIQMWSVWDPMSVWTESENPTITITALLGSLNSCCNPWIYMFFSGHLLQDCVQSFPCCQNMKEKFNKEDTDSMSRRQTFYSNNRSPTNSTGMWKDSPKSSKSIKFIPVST

Structure (SMILES) | AC50 (Cannabinoid receptor 1) [µM] | AC50 [1] [µM] | AC50 (Histamine H2 receptor) [µM] | AC50 [2] [µM] | AC50 [3] [µM] | AC50 [4] [µM] | AC50 (Melanocortin receptor 4) [µM] | AC50 [5] [µM] | AC50 (Mu-type opioid receptor) [µM] | AC50 (Vasopressin V1a receptor) [µM] | AC50 [6] [µM] | AC50 [7] [µM] | AC50 [8] [µM]
Cc1cc(-c2ccccc2)nnc1NCCN1CCOCC1 [MINAPRINE] | 9.5 | > 10 | > 10 | > 10 | > 30 | > 30 | > 30 | > 30 | > 30 | > 10 | > 10 | > 10 | > 10
CN(C)C(=O)OC1N=C(c2ccccc2)c2cc(Cl)ccc2N(C)C1=O (centres undefined) [CAMAZEPAM] | > 10 | > 10 | > 10 | > 10 | > 30 | > 30 | > 30 | > 30 | > 10 | > 10 | > 10 | > 10 | > 10
CN1CCc2cccc3c2[C@H]1Cc1ccc(O)c(O)c1-3 [APOMORPHINE] | > 10 | > 30 | > 10 | > 10 | > 30 | > 30 | > 30 | > 30 | > 30 | > 30 | > 10 | > 10 | > 10
